In patent US8148367B2 (Takeda Pharmaceutical Company Limited, priority 2008, dated 2012) one finds IC50 data, which are given here for 28 molecules.

Each structure is given as a SMILES string. pIC50: −log10 of the molar value.

The target of this test is T1, Recombinant human renin (Homo sapiens, UniProt P00797).
T1 construct: isolate the active form (residues 67-406); made in house; host or cells: FreeStyle 293-F cells, transient expression of pcDNA3.1(+)/hREN
T1 sequence (P00797 67-406): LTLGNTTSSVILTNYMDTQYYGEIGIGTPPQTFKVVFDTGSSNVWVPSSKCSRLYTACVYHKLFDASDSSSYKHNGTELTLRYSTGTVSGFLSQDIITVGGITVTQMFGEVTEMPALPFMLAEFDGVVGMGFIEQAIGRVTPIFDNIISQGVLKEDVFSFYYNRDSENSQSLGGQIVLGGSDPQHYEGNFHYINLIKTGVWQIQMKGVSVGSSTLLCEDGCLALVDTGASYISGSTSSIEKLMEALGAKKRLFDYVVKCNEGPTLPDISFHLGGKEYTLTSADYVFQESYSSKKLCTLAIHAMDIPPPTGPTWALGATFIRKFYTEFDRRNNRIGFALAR
The experiment in a line: In vitro enzymatic activity assay of renin inhibitors (fluorescence, QXL520/HiLyteFluo488 peptide substrate). The test is classed as biochemical. The note with it: recombinant human renin 3 nM, 1 μM substrate, pre-incubated 10 minutes at 37° C., incubation one hour, pH 7.4, 5% DMSO; read-out: IC50 of Exemplified Compounds Against Renin.

Take `COc1ccccc1NC(=O)NCCn1c(C(=O)N2CCNCC2)c(-c2ccccc2)n(-c2ccccc2C)c1=O` [Example 214, 1-(2-Methoxyphenyl)-3-(2-(2-oxo-4-phenyl-5-(piperazine-1-carbonyl)-3-o-tolyl-2,3-dihydro-1H-imidazol-1-yl)ethyl)urea]: the pIC50 was 6.00 to 6.30. For `COc1cccc(NC(=O)NCCn2c(C(=O)N3CCNCC3)c(-c3ccccc3)n(-c3ccccc3C)c2=O)c1` [Example 215, 1-(3-Methoxyphenyl)-3-(2-(2-oxo-4-phenyl-5-(piperazine-1-carbonyl)-3-o-tolyl-2,3-dihydro-1H-imidazol-1-yl)ethyl)urea] the value was 6.30 to 7.00; for `Cc1ccccc1-n1c(-c2ccccc2)c(C(=O)N2CCNCC2)n(CCNC(=O)NC(C)C)c1=O` [Example 216, 1-Isopropyl-3-(2-(2-oxo-4-phenyl-5-(piperazine-1-carbonyl)-3-o-tolyl-2,3-dihydro-1H-imidazol-1-yl)ethyl)urea], below 6.00; for `Cc1ccccc1-n1c(-c2ccccc2)c(C(=O)N2CCNCC2)n(CCCNS(=O)(=O)c2ccccc2Cl)c1=O` [Example 217, 2-Chloro-N-(3-(2-oxo-4-phenyl-5-(piperazine-1-carbonyl)-3-o-tolyl-2,3-dihydro-1H-imidazol-1-yl)propyl)benzenesulfonamide], above 7.00. For `Cc1ccccc1-n1c(-c2ccccc2)c(C(=O)N2CCNCC2)n(CCCNS(=O)(=O)c2cccc(Cl)c2)c1=O` [Example 218, 3-Chloro-N-(3-(2-oxo-4-phenyl-5-(piperazine-1-carbonyl)-3-o-tolyl-2,3-dihydro-1H-imidazol-1-yl)propyl)benzenesulfonamide] the value was 6.30 to 7.00; for `Cc1ccccc1-n1c(-c2ccccc2)c(C(=O)N2CCNCC2)n(CCCNS(=O)(=O)c2ccc(Cl)cc2)c1=O` [Example 219, 4-Chloro-N-(3-(2-oxo-4-phenyl-5-(piperazine-1-carbonyl)-3-o-tolyl-2,3-dihydro-1H-imidazol-1-yl)propyl)benzenesulfonamide], 6.30 to 7.00; for `Cc1ccccc1-n1c(-c2ccccc2)c(C(=O)N2CCNCC2)n(CCCNS(=O)(=O)c2ccccc2C)c1=O` [Example 220, 2-Methyl-N-(3-(2-oxo-4-phenyl-5-(piperazine-1-carbonyl)-3-o-tolyl-2,3-dihydro-1H-imidazol-1-yl)propyl)benzenesulfonamide], above 7.00.

As for `COc1cccc(S(=O)(=O)NCCCn2c(C(=O)N3CCNCC3)c(-c3ccccc3)n(-c3ccccc3C)c2=O)c1` [Example 221, 3-Methoxy-N-(3-(2-oxo-4-phenyl-5-(piperazine-1-carbonyl)-3-o-tolyl-2,3-dihydro-1H-imidazol-1-yl)propyl)benzenesulfonamide], the pIC50 is 6.30 to 7.00. For `COc1ccc(S(=O)(=O)NCCCn2c(C(=O)N3CCNCC3)c(-c3ccccc3)n(-c3ccccc3C)c2=O)cc1` [Example 222, 4-Methoxy-N-(3-(2-oxo-4-phenyl-5-(piperazine-1-carbonyl)-3-o-tolyl-2,3-dihydro-1H-imidazol-1-yl)propyl)benzenesulfonamide] the value was 6.30 to 7.00. The figure for `Cc1ccccc1-n1c(-c2ccccc2)c(C(=O)N2CCNCC2)n(CCCNC(=O)Nc2ccccc2)c1=O` [Example 223, 1-(3-(2-Oxo-4-phenyl-5-(piperazine-1-carbonyl)-3-o-tolyl-2,3-dihydro-1H-imidazol-1-yl)propyl)-3-phenylurea] is 6.00 to 6.30.

As for `Cc1ccccc1-n1c(-c2ccccc2)c(C(=O)N2CCNCC2)n(CCCNC(=O)Nc2ccccc2Cl)c1=O` [Example 224, 1-(2-Chlorophenyl)-3-(3-(2-oxo-4-phenyl-5-(piperazine-1-carbonyl)-3-o-tolyl-2,3-dihydro-1H-imidazol-1-yl)propyl)urea], the pIC50 was 6.30 to 7.00. For `COc1ccccc1NC(=O)NCCCn1c(C(=O)N2CCNCC2)c(-c2ccccc2)n(-c2ccccc2C)c1=O` [Example 225, 1-(2-Methoxyphenyl)-3-(3-(2-oxo-4-phenyl-5-(piperazine-1-carbonyl)-3-o-tolyl-2,3-dihydro-1H-imidazol-1-yl)propyl)urea] the value was 6.30 to 7.00; for `COc1cccc(NC(=O)NCCCn2c(C(=O)N3CCNCC3)c(-c3ccccc3)n(-c3ccccc3C)c2=O)c1` [Example 226, 1-(3-Methoxyphenyl)-3-(3-(2-oxo-4-phenyl-5-(piperazine-1-carbonyl)-3-o-tolyl-2,3-dihydro-1H-imidazol-1-yl)propyl)urea], 6.30 to 7.00. The figure for `Cc1ccccc1-n1c(-c2ccccc2)c(C(=O)N2CCNCC2)n(CCCNC(=O)NC(C)C)c1=O` [Example 227, 1-Isopropyl-3-(3-(2-oxo-4-phenyl-5-(piperazine-1-carbonyl)-3-o-tolyl-2,3-dihydro-1H-imidazol-1-yl)propyl)urea] is below 6.00; for `COc1ccc(NC(=O)NCCn2c(C(=O)N3CCNCC3)c(-c3ccccc3)n(-c3ccccc3C)c2=O)cc1` [Example 228, 1-(4-Methoxyphenyl)-3-(2-(2-oxo-4-phenyl-5-(piperazine-1-carbonyl)-3-o-tolyl-2,3-dihydro-1H-imidazol-1-yl)ethyl)urea] it is 6.00 to 6.30; for `Cc1ccccc1-n1c(-c2ccccc2)c(C(=O)N2CCNCC2)n(CCCNS(=O)(=O)c2ccccc2F)c1=O` [Example 229, 2-Fluoro-N-(3-(2-oxo-4-phenyl-5-(piperazine-1-carbonyl)-3-o-tolyl-2,3-dihydro-1H-imidazol-1-yl)propyl)benzenesulfonamide] it is 6.00 to 6.30. The figure for `Cc1ccccc1-n1c(-c2ccccc2)c(C(=O)N2CCNCC2)n(CCNC(=O)c2ccccc2F)c1=O` [Example 230, 2-Fluoro-N-(2-(2-oxo-4-phenyl-5-(piperazine-1-carbonyl)-3-o-tolyl-2,3-dihydro-1H-imidazol-1-yl)ethyl)benzamide] is below 6.00.

In the case of `Cc1ccccc1-n1c(-c2ccccc2)c(C(=O)N2CCNCC2)n(CCNC(=O)c2ccccc2Cl)c1=O` [Example 231, 2-Chloro-N-(2-(2-oxo-4-phenyl-5-(piperazine-1-carbonyl)-3-o-tolyl-2,3-dihydro-1H-imidazol-1-yl)ethyl)benzamide], the pIC50 was below 6.00.

For `Cc1ccccc1-n1c(-c2ccccc2)c(C(=O)N2CCNCC2)n(CCNC(=O)c2cccc(Cl)c2)c1=O` [Example 232, 3-Chloro-N-(2-(2-oxo-4-phenyl-5-(piperazine-1-carbonyl)-3-o-tolyl-2,3-dihydro-1H-imidazol-1-yl)ethyl)benzamide], the pIC50 is 6.00 to 6.30. For `Cc1ccccc1-n1c(-c2ccccc2)c(C(=O)N2CCNCC2)n(CCNC(=O)c2ccc(Cl)cc2)c1=O` [Example 233, 4-Chloro-N-(2-(2-oxo-4-phenyl-5-(piperazine-1-carbonyl)-3-o-tolyl-2,3-dihydro-1H-imidazol-1-yl)ethyl)benzamide] the value was 6.00 to 6.30; for `COc1ccccc1C(=O)NCCn1c(C(=O)N2CCNCC2)c(-c2ccccc2)n(-c2ccccc2C)c1=O` [Example 234, 2-Methoxy-N-(2-(2-oxo-4-phenyl-5-(piperazine-1-carbonyl)-3-o-tolyl-2,3-dihydro-1H-imidazol-1-yl)ethyl)benzamide], 6.00 to 6.30. The figure for `COc1ccc(C(=O)NCCn2c(C(=O)N3CCNCC3)c(-c3ccccc3)n(-c3ccccc3C)c2=O)cc1` [Example 235, 4-Methoxy-N-(2-(2-oxo-4-phenyl-5-(piperazine-1-carbonyl)-3-o-tolyl-2,3-dihydro-1H-imidazol-1-yl)ethyl)benzamide] is 6.00 to 6.30; for `Cc1ccccc1-n1c(-c2ccccc2)c(C(=O)N2CCNCC2)n(CCNC(=O)C(C)C)c1=O` [Example 236, N-(2-(2-oxo-4-phenyl-5-(piperazine-1-carbonyl)-3-o-tolyl-2,3-dihydro-1H-imidazol-1-yl)ethyl)isobutyramide] it is below 6.00. In the case of `Cc1ccccc1-n1c(-c2ccccc2)c(C(=O)N2CCNCC2)n(CCNC(=O)C2CCCCC2)c1=O` [Example 237, N-(2-(2-oxo-4-phenyl-5-(piperazine-1-carbonyl)-3-o-tolyl-2,3-dihydro-1H-imidazol-1-yl)ethyl)cyclohexanecarboxamide], the pIC50 was below 6.00. As to `Cc1ccccc1-n1c(-c2ccccc2)c(C(=O)N2CCNCC2)n(CCNC(=O)CC(C)C)c1=O` [Example 238, 3-Methyl-N-(2-(2-oxo-4-phenyl-5-(piperazine-1-carbonyl)-3-o-tolyl-2,3-dihydro-1H-imidazol-1-yl)ethyl)butanamide], the pIC50 was below 6.00. The figure for `Cc1ccccc1-n1c(-c2ccccc2)c(C(=O)N2CCNCC2)n(CCCNS(=O)(=O)C(C)C)c1=O` [Example 239, N-(3-(2-oxo-4-phenyl-5-(piperazine-1-carbonyl)-3-o-tolyl-2,3-dihydro-1H-imidazol-1-yl)propyl)propane-2-sulfonamide] is below 6.00; for `Cc1ccccc1-n1c(-c2ccccc2)c(C(=O)N2CCNCC2)n(CCCNC(=O)c2ccccc2F)c1=O` [Example 240, 2-Fluoro-N-(3-(2-oxo-4-phenyl-5-(piperazine-1-carbonyl)-3-o-tolyl-2,3-dihydro-1H-imidazol-1-yl)propyl)benzamide] it is below 6.00; for `Cc1ccccc1-n1c(-c2ccccc2)c(C(=O)N2CCNCC2)n(CCCNC(=O)c2ccccc2Cl)c1=O` [Example 241, 2-Chloro-N-(3-(2-oxo-4-phenyl-5-(piperazine-1-carbonyl)-3-o-tolyl-2,3-dihydro-1H-imidazol-1-yl)propyl)benzamide] it is below 6.00.
